In patent US12042530B2, “Target peptides for immunotherapy and diagnostics” (University of Virginia Patent Foundation, priority 2012, dated 2024):
Where two headings read alike, the source gives them in different places. Values belong to the compound of their own block, whether it stands above or below them. Non-standard residues stand in square brackets, D forms with d. No end group written: not given here. pS = N[C@@H](COP(=O)(O)O)C(=O)O

Experiments:
melanoma cells = assay: T cell recognition of GSK-3β- and proteasome-inhibited melanoma cells; format: cell-based, human; settings: for pS33-βcat-specific T cell recognition of melanoma cells: DM331 and SLM2, re-expression of peptide-MHC in presence of inhibitor (5 μM)
Method: Surface peptide-MHC complexes were denatured from the cells using a mild acid buffer as previously described (Robila et al., 2008) and then allowed to re-express peptide-MHC molecules in the presence of BIO, MeBIO, or 5 μM lactacystin for 12 hours. T cell recognition of the cells was evaluated after 5 hours incubation with pS33-βcat-specific T cells.

phosphoS33-β-catenin = assay: Western blot of phosphoS33-β-catenin and β-catenin; format: cell-based, human; settings: BIO in the presence of lactacystin
Method: Lysates were prepared from ˜80% confluent cells in buffer containing 2% Triton X 100 and protease and phosphatase inhibitors. Samples were separated on 8% SDS-PAGE (Thermo Fischer Scientific Inc., Waltham, Massachusetts, United States of America) and transferred to PVDF membranes (Millipore Immobilon-FL, 0.45 μm; Millipore Corporation, Billerica, Massachusetts, United States of America). Blots were probed with phosphoS33-β-catenin, β-catenin, and GAPDH antibodies overnight at 4° C. and developed by enhanced chemiluminescence (Millipore). Films were scanned and integrated density values determined using AlphaEase software and normalized to values obtained for GAPDH. In some cases, GSK-3 activity was inhibited using 5 μg BIO ((2′Z, 3′E)-6-Bromoindirubin-3′-oxime) and proteasomal degradation was blocked with 10 μg lactacystin (Calbiochem) before cells were lysed.

PBMCs [1] = assay: 7-day recall ELISpot, AML patients, before and after stem cell transplantation; format: cell-based, human
Method: To develop a more complete understanding of phosphoantigen-directed T cell immunity in patients with leukemia, these studies were extended into AML using a panel of 14 AML-specific phosphopeptide antigens. A cohort of 12 patients in complete remission (CR) with AML (see Table 24) were assessed using 7-day recall responses, as measured by ELISpot, and compared against a cohort of 12 healthy donors (see FIGS. 14A and 16).
To test this hypothesis, all 12 AML patients underwent allogeneic SCT and immune reconstitution against 14 AML-specific phosphopeptide antigens was monitored. […] For some patients, immune reconstitution was studied in more detail. For patient AML8 marked expansions of 6 different phosphopeptide immune responses were observed (see FIG. 14E).
For ELISpot analysis, PBMCs and CD8^+ T cells were isolated fresh from healthy donors and patients. 1×10^6 PBMCs were isolated from both AML patients and healthy donors and resuspended in AIM-V media (10% human AB serum) in a 96 well plate. Peptide or phosphopeptides were added individually at 10 μg/ml and placed at 37° C. in CO2 incubator for 7 days. Cells were then harvested, washed 4 times, and re-challenged with phosphopeptides, peptides, or anti-CD3 (OKT3, 100 ng/ml, Mabtech, Inc., Mariemont, Ohio, United States of America) as per the manufacturer's instructions. […]

PBMCs [2] = assay: Memory T cell response, IFNγ ELISpot, healthy A2 positive donors; format: cell-based, human; settings: for Day 7 ELISpot, donor alpha: healthy A2 positive donor alpha; for Day 7 ELISpot, donor one: healthy A2 positive donor one
cancer cell lines = assay: Recognition of naturally processed phosphopeptides on cancer cell lines by phosphopeptide-specific CTL (murine IFNγ); format: cell-based, human; settings: ovarian, melanoma and breast cancer lines versus JY EBV-BLCL control
Method: FIGS. 9A and 9B are bar graphs of the recognition of naturally processed and presented phosphorylated peptides on cancer cells by the phosphopeptide-specific CTL. Phosphopeptide-specific CTL were incubated with the following cancer cell lines or EBV-transformed B lymphoblastoid cell lines (BLCL): COV413.AAD.A4 ovarian carcinoma, DM331.AAD.A4 and SLM2.AAD.A1 melanomas, MCF7.AAD.A2 and MDAMB231.AAD breast carcinomas, and JY EBV-BLCL. Supernatants were harvested and evaluated for the presence of murine IFNγ (produced by murine CTL lines). […] The designation “pS” denotes a phosphoserine residue. The ordinate indicates murine IFNγ in pg/ml. The abscissa indicates each cell line.

CD8+ T cells = assay: ELISpot T cell recognition assay, healthy donors, leukemia-associated phosphopeptides; format: cell-based, human; settings: 10 HLA-A2+ and 10 HLA-B7+ healthy individuals, 7 day cultures
Method: Immunity against 76 HLA-B7 and 10 HLA-A2 leukemia-associated phosphopeptide antigens was assessed in 10 HLA-A2^+ and 10 HLA-B7^+ healthy individuals (see FIG. 12A).
For ELISpot analysis, PBMCs and CD8^+ T cells were isolated fresh from healthy donors and patients. 1×10^6 PBMCs were isolated from both AML patients and healthy donors and resuspended in AIM-V media (10% human AB serum) in a 96 well plate. Peptide or phosphopeptides were added individually at 10 μg/ml and placed at 37° C. in CO2 incubator for 7 days. Cells were then harvested, washed 4 times, and re-challenged with phosphopeptides, peptides, or anti-CD3 (OKT3, 100 ng/ml, Mabtech, Inc., Mariemont, Ohio, United States of America) as per the manufacturer's instructions. Individual cytokine-producing cells were identified as dark spots after a 15 minute reaction with 5-bromo-4-chloro-3-indolyl phosphate and NBT by means of an alkaline phosphatase conjugate substrate (Mabtech).

[3] = test system: RQA(pS)IELPSMAV-specific T cells; assay: Recognition of peptide-loaded targets by RQA(pS)[…]-specific T cells (IFNγ); format: cell-based, human
Description: Three of the HLA-A2 and two HLA-B7 phosphopeptides were derived from LSP-1, a protein previously identified as a potential tumor marker. One of these, RQA(pS)[…] (SEQ ID NO: 452), was selected for initial immunological studies due to its widespread expression on all HLA-A2^+ tumor samples analyzed and also because it was present on tumor samples at high copy number. Monocyte-derived dendritic cells were generated from healthy donors and used to prime autologous T cells and HLA-phosphopeptide tetramers were used to enrich phosphopeptide-specific T cells, between each stimulation steps, to produce a monospecific T cell line (see FIG. 11A). […] Recognition was, therefore, phosphate-dependent and phosphopeptide-specific.
HLA-A2 restricted RQA-V (SEQ ID NO: 2375) phosphopeptide-specific cytotoxic CD8^+ T cells were generated from healthy donors as described previously in Ho et al., 2006. Briefly, PBMCs were cultured in flat-bottom 6-well plates at 10^7 cells per well in RPMI 1640 plus 10% heat-inactivated human AB serum (10% media). GM-CSF (800 IU/mL), and IL-4 (1000 units/mL; PeproTech) were added on day 0 to generate dendritic cells (DC). On day 1, a maturation cocktail was added containing 100 ng/ml TNFα, 100 ng/ml IL-1β, 10,000 IU/ml IL-6, 8,000 IU/ml GM-CSF, and 10 μg/ml PGE2. […]

HLA A*0201 = HLA A*0201 (Homo sapiens, UniProt P04439, D140Y/D185E/D98H/E176V/E277Q/G131W/G231S/I119V/I121R/I166T/I218V/L300P/L318F/N151K/N90K/P208A/P217A/Q86G/Q94H/R138H/R169H/T345S); assay: Binding to HLA A*0201 (statement)
HLA A*0301 = HLA A*0301 (Homo sapiens, UniProt P04439); assay: Binding to HLA A*0301 (statement)

Compound: O=C1Nc2cc(Br)ccc2/C1=C1/Nc2ccccc2/C1=N\O [BIO, (2′Z, 3′E)-6-Bromoindirubin-3′-oxime]
pS33-βcat-specific T cell recognition of melanoma cells (melanoma cells): completely abrogated recognition of melanoma cells
T cell recognition of Tyr369 (melanoma cells; control epitope): unaffected
Amount of phosphoS33-β-catenin in melanoma cells (phosphoS33-β-catenin): significantly diminished

Compound: CC(=O)NC(CSC(=O)C1(C(O)C(C)C)NC(=O)C(C)C1O)C(=O)O (stereo not shown) [lactacystin, 2-(acetylamino)-3-[({3-hydroxy-2-[1-hydroxy-2-methylpropyl]-4-methyl-5-oxopyrrolidin-2-yl}carbonyl)sulfanyl]propanoic acid]
pS33-βcat-specific T cell recognition of melanoma cells (melanoma cells): abolished
Amount of phosphoS33-β-catenin in melanoma cells (phosphoS33-β-catenin): substantial increase

Compound: EPRsPSHSM (EPR[pS]PSHSM; listed as Homo sapiens) [SEQ ID NO: 270]
Immune reconstitution after allogeneic stem cell transplantation (PBMCs [1]): dramatic expansion

Compound: GLLGpSPVRA (GLLG[pS]PVRA; listed as Homo sapiens) [SEQ ID NO: 396]
Day 7 ELISpot, donor alpha (PBMCs [2]): + (3-24 spots)
Day 7 ELISpot, donor one (PBMCs [2]): + (3-24 spots)
Recognition of the endogenous phosphopeptide by specific CTL lines (cancer cell lines): recognized the phosphopeptide on all the cancer cell lines but not the control cell line

Compound: KLIDRTE(pS)L (KLIDRTE[pS]L; listed as Homo sapiens) [SEQ ID NO: 440]
Immune response in healthy donors, in words (CD8+ T cells): not immunogenic

Compound: QPRtPSPLVL [SEQ ID NO: 304]
Immune response in healthy donors, in words (CD8+ T cells): some of the strongest responses
Immune reconstitution after allogeneic stem cell transplantation (PBMCs [1]): dramatic expansion

Compound: RQA(pS)IELPSM (RQA[pS]IELPSM; listed as Homo sapiens) [SEQ ID NO: 451]
Immune response in healthy donors, in words (CD8+ T cells): not immunogenic

Compound: RQA(pS)IELPSMAV (RQA[pS]IELPSMAV; listed as Homo sapiens) [SEQ ID NO: 452]
Immune response in healthy donors, in words (CD8+ T cells): some of the strongest responses
IFNγ production by RQA(pS)IELPSMAV-specific T cells in response to the peptide [3]: produced IFNγ

Compound: RQASIELPSMAV [reference compound]
IFNγ production by RQA(pS)IELPSMAV-specific T cells in response to the peptide [3]: not to the unphosphorylated RQASIELPSMAV

Binding to HLA A*0201 (HLA A*0201): binds to HLA A*0201
Binding to HLA A*0201 (HLA A*0201; listed as RVA): did not bind to A*0201
Binding to / presentation by HLA A*0301 (HLA A*0301; listed as RVA): binds to A*0301
Compound: RVApSPTSGV (RVA[pS]PTSGV; listed as Homo sapiens) [SEQ ID NO: 418]
Day 7 ELISpot, donor alpha (PBMCs [2]): ++ (25-99 spots)
Day 7 ELISpot, donor one (PBMCs [2]): ++ (25-99 spots)
Memory T cell response, in words (PBMCs [2]; healthy donors / patient): None of the HD recognized or responded to it
Recognition of the endogenous phosphopeptide by specific CTL lines (cancer cell lines): recognized the phosphopeptide on all the cancer cell lines but not the control cell line
Binding to / presentation by HLA A*0301 (HLA A*0301): cannot be presented by the A*0301 molecule

Binding to / presentation by HLA A*0301 (HLA A*0301): bind to HLA A*0301
Compound: RVAsPTSGVK (RVA[pS]PTSGVK; listed as Homo sapiens) [SEQ ID NO: 65]
Binding to HLA A*0201 (HLA A*0201): Neither of the A*0301 peptides bind to A*0201

Binding to / presentation by HLA A*0301 (HLA A*0301): bind to HLA A*0301
Compound: RVAsPTSGVKR (RVA[pS]PTSGVKR; listed as Homo sapiens) [SEQ ID NO: 66]
Binding to HLA A*0201 (HLA A*0201): Neither of the A*0301 peptides bind to A*0201
